Measured values as given in US8148422B2, “Sulfonamides as TRPM8 modulators” (Janssen Pharmaceutica, NV, priority 2008, dated 2012).
Like-named read-outs stand apart in the source and are kept apart here.

Experiments:
canine TRPM8 = biological target: T1, canine TRPM8 (Canis lupus familiaris, UniProt Q1A7N1); assay: In vitro canine TRPM8 functional assay (Ca2+-sensitive fluorescent dye, FLIPR or FDSS, icilin challenge); format: cell-based; conditions: for inhibition at 0.2 µM: 0.2 μM compound
T1 construct: expressed in transfected cells
Method in brief: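 Canine TRPM8 stably expressed in HEK293; compound added 5 min before icilin challenge (~80% max response), with fluorescent Ca2+ signal tracked throughout.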

[1] = test system: icilin-induced "wet-dog" shakes (WDS); assay: Inhibition of icilin-induced "wet-dog" shakes in rats; format: in vivo; conditions: HCl salt, 10 mpk PO, vehicle HPbCD; male Sprague Dawley rats; [1-(test compound WDS count/vehicle WDS count)]x100
Protocol: Male Sprague Dawley rats (220-450 g, Charles River Labs, n=6-9/treatment) were used to evaluate the ability of compounds selected from the group consisting of formula (I) and formula (II) to block icilin-induced “wet-dog” shakes (WDS). Compounds selected from the group consisting of formula (I) and formula (II) were administered in an appropriate vehicle, such as hydroxypropyl-β-cyclodextrin (HPβCD), methocellulose, 10% Solutol, or H2O, or the like, by the appropriate route, i.p. or p.o., 30-120 minutes before icilin. Icilin was administered in PEG-400 or 10% solutol/H2O, at 1.0 or 3.0 mg/kg, i.p. and spontaneous “wet-dog” shakes were counted 10-20 minutes post-icilin. Results are presented as a percent inhibition of shakes, which was calculated as [1−(test compound WDS count/vehicle WDS count)]×100.

[2] = HEK293 cells stably expressing canine TRPM8, icilin challenge
[3] = HEK293 cells stably expressing canine TRPM8, icilin at approx. 80% maximal response, eight-point dose-response, single determinations unless otherwise noted, read-out: IC50

T1 sequence (Q1A7N1 1-1104): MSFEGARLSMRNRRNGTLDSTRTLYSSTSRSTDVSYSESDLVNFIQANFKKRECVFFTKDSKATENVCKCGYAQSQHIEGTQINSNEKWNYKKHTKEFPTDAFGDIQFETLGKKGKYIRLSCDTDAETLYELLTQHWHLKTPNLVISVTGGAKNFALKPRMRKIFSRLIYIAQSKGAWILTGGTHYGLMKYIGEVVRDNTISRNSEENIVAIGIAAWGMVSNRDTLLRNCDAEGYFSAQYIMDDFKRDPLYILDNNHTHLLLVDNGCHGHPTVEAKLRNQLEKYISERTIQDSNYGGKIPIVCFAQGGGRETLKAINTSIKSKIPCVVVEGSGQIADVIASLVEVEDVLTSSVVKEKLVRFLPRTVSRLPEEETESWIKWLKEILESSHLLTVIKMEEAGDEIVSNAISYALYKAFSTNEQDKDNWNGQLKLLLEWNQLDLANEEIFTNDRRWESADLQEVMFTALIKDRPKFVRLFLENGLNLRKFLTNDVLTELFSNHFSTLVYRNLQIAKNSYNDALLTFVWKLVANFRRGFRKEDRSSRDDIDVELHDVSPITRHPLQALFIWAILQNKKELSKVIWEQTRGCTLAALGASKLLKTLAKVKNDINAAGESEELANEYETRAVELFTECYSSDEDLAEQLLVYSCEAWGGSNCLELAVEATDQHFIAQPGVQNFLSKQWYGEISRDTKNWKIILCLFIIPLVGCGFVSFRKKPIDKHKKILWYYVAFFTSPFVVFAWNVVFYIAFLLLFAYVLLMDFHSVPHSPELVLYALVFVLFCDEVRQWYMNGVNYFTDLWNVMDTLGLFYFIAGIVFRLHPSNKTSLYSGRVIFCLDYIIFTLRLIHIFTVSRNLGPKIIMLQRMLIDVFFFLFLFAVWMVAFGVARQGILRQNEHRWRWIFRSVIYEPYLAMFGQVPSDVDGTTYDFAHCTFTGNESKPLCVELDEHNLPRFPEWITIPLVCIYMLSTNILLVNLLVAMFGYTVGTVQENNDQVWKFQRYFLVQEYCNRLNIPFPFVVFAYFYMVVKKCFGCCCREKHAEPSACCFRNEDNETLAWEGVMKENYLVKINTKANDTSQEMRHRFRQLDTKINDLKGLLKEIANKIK

inhibition at 0.2 µM (canine TRPM8; [2]) | IC50 (canine TRPM8; [3]) | IC50 (canine TRPM8) | IC50 (canine TRPM8; IC50, determination of HCl salt, HEK293 cells stably expressing canine TRPM8, icilin challenge) | inhibition at 0.2 µM (canine TRPM8; determination of HCl salt) | Structure (SMILES) | % Inhibition (of wet-dog shakes) [1]
102% | 16 nM |  |  |  | Cc1c(N(Cc2ccc(OC(F)(F)F)cc2)S(=O)(=O)CCN(C)Cc2ccccc2)sc2ccccc12 [Cpd 14, N-(3-Methylbenzo[b]thiophen-2-yl)-N-(4-trifluoromethoxy-benzyl)-2-(benzyl-methylamino)ethylsulfonamide] | 0%
101% | 6 nM |  |  |  | Cc1c(N(Cc2ccc(OC(F)(F)F)cc2)S(=O)(=O)CCN(CC(C)C)CC(C)C)sc2ccccc12 [Cpd 16, N-(3-Methylbenzo[b]thiophen-2-yl)-N-(4-trifluoromethoxy-benzyl)-2-(diisobutylamino)ethylsulfonamide] | 0%
100% |  | 29 nM | 26 nM | 100% | Cc1c(N(Cc2ccc(OC(F)(F)F)cc2)S(=O)(=O)CCN2CCC(c3ccccc3)CC2)sc2ccccc12 [Cpd 25, N-(3-Methylbenzo[b]thiophen-2-yl)-N-(4-trifluoromethoxy-benzyl)-2-(4-phenylpiperidin-1-yl)ethylsulfonamide] | 12.7%
100% | 17 nM |  |  |  | Cc1c(N(CCC2CC2)S(=O)(=O)CCN(CC(C)C)CC(C)C)sc2ccccc12 [Cpd 74, N-(3-Methylbenzo[b]thiophen-2-yl)-N-(2-cyclopropyl-ethyl)-2-(diisobutylamino)ethylsulfonamide] | 26%
100% | 18 nM |  |  |  | Cc1c(N(CCCCC(F)(F)F)S(=O)(=O)CCN(CC(C)C)CC(C)C)sc2ccccc12 [Cpd 78, N-(3-Methylbenzo[b]thiophen-2-yl)-N-(5,5,5-trifluoro-n-pent-1-yl)-2-(di-iso-butylamino)ethylsulfonamide] | 3%
100% | 26 nM |  |  |  | Cc1c(N(Cc2ccc(F)c(F)c2)S(=O)(=O)CCN(CC(C)C)CC(C)C)sc2ccccc12 [Cpd 80, N-(3-Methylbenzo[b]thiophen-2-yl)-N-(3,4-difluoro-benzyl)-2-(di-iso-butylamino)ethylsulfonamide] | 0%
99% | 36 nM |  |  |  | CCN(CCS(=O)(=O)N(CCCCC(F)(F)F)c1sc2ccccc2c1C)CC(C)C [Cpd 89, N-(3-Methylbenzo[b]thiophen-2-yl)-N-(5,5,5-tritluoro-n-pent-1-yl)-2-(ethyl-isobutylamino)ethylsulfonamide] | 
92% | 44 nM |  |  |  | CCC(=O)N(CCS(=O)(=O)N(CCCCC(F)(F)F)c1sc2ccccc2c1C)CC(C)C [Cpd 90, N-(3-Methylbenzo[b]thiophen-2-yl)-N-(5,5,5-trifluoro-n-pent-1-yl)-2-(N-propionoyl-isobutylamino)ethylsulfonamide] | 
99% | 50 nM |  |  |  | CCCN(CCS(=O)(=O)N(CCCCC(F)(F)F)c1sc2ccccc2c1C)CC(C)C [Cpd 91, N-(3-Methylbenzo[b]thiophen-2-yl)-N-(5,5,5-tritluoro-n-pent-1-yl)-2-(n-propyl-isobutylamino)ethylsulfonamide] | 
101% | 35 nM |  |  |  | CC(=O)N(CCS(=O)(=O)N(CCC1CC1)c1sc2ccccc2c1C)CC(C)C [Cpd 92, N-(3-Methylbenzo[b]thiophen-2-yl)-N-(2-cyclopropyl-ethyl)-2-(N-acetyl-isobutylamino)ethylsulfonamide] | 
100% | 43 nM |  |  |  | CCC(=O)N(CCS(=O)(=O)N(CCC1CC1)c1sc2ccccc2c1C)CC(C)C [Cpd 93, N-(3-Methylbenzo[b]thiophen-2-yl)-N-(2-cyclopropyl-ethyl)-2-(N-propionoyl-isobutylamino)ethylsulfonamide] | 
103% | 27 nM |  |  |  | CCN(CCS(=O)(=O)N(CCC1CC1)c1sc2ccccc2c1C)CC(C)C [Cpd 94, N-(3-Methylbenzo[b]thiophen-2-yl)-N-(2-cyclopropyl-ethyl)-2-(ethyl-isobutylamino)ethylsulfonamide] | 
103% | 23 nM |  |  |  | CCCN(CCS(=O)(=O)N(CCC1CC1)c1sc2ccccc2c1C)CC(C)C [Cpd 95, N-(3-Methylbenzo[b]thiophen-2-yl)-N-(2-cyclopropyl-ethyl)-2-(n-propyl-isobutylamino)ethylsulfonamide] | 
72% | 153 nM |  |  |  | CC(C)CN(CCS(=O)(=O)N(Cc1ccc(OC(F)(F)F)cc1)c1ccc2ccccc2c1)CC(C)C [Cpd 96, N-(Naphth-2-yl)-N-(4-trifluoromethoxy-benzyl)-2-(diisobutylamino)-ethylsulfonamide] | 
